Measured values: patent publication US4455290A, “Inhibition of fibrin polymerization by a peptide isolated from fibrin Fragment D1” (Research Corporation, priority 1981, dated 1984)
Peptide text beside a SMILES is read from it.

Tests used:
fibrinogen = biological target: T1, fibrinogen (Homo sapiens, UniProt P02671+P02675+P02679); test: Delay of onset of fibrin polymerization, fibrinogen in the presence of thrombin; type: biochemical; details: 1:1 ratio of D1 Peptide to fibrinogen in the presence of thrombin
T1 sequence (P02671 36-629 isoform P02671-2): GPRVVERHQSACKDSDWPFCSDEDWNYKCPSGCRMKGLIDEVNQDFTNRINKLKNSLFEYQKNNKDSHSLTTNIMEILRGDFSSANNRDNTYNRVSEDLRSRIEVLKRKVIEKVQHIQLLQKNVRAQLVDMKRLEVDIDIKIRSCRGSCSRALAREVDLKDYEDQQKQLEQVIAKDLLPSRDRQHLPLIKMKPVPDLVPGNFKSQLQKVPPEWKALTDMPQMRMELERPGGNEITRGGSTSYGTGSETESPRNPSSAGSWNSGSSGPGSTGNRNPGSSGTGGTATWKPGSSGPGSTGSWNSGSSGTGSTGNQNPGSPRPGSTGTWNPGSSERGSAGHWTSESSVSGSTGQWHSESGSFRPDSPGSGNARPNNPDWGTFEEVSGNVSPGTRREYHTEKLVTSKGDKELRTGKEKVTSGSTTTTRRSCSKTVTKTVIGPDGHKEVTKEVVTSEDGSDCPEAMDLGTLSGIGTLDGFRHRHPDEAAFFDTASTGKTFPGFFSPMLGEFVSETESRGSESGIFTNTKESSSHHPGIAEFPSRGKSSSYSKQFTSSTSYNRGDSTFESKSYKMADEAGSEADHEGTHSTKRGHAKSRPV
T1 sequence (P02675 45-491): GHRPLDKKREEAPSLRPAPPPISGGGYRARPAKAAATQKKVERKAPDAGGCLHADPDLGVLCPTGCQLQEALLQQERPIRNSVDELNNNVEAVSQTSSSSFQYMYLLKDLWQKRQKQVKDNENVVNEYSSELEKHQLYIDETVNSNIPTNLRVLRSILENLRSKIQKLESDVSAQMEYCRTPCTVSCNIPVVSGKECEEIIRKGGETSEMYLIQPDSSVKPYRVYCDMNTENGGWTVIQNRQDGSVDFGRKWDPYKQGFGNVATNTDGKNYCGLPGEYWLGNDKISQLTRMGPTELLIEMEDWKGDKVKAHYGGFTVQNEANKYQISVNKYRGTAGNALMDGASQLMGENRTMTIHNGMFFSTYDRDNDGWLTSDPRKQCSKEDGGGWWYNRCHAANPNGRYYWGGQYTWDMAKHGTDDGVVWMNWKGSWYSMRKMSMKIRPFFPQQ
T1 sequence (P02679 27-437 isoform P02679-2): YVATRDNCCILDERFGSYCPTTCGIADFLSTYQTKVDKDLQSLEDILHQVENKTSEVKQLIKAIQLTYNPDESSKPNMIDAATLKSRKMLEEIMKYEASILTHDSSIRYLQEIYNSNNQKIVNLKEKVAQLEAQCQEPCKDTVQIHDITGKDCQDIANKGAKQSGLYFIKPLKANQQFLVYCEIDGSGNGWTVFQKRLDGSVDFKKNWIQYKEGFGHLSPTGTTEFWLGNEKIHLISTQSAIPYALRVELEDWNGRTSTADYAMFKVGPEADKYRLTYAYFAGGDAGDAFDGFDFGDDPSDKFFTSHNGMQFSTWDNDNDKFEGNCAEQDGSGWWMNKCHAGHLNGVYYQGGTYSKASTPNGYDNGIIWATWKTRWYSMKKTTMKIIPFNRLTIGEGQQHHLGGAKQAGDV

[1] = biological target: T2, batroxobin fibrin monomer (Homo sapiens, UniProt P02671+P02675+P02679); test: Inhibition of fibrin monomer polymerization (absorbance at 350 nm), batroxobin fibrin monomer; type: biochemical
T2 construct: fibrin monomer which was formed by batroxobin (lacking fibrinopeptide A); made in house; host or cells: not recombinant: made from fibrinogen by treatment with batroxobin (Bothrops atrox venom enzyme)
T2 sequence (P02671 36-629 isoform P02671-2): T1 sequence (P02671 36-629 isoform P02671-2)
T2 sequence (P02675 31-491): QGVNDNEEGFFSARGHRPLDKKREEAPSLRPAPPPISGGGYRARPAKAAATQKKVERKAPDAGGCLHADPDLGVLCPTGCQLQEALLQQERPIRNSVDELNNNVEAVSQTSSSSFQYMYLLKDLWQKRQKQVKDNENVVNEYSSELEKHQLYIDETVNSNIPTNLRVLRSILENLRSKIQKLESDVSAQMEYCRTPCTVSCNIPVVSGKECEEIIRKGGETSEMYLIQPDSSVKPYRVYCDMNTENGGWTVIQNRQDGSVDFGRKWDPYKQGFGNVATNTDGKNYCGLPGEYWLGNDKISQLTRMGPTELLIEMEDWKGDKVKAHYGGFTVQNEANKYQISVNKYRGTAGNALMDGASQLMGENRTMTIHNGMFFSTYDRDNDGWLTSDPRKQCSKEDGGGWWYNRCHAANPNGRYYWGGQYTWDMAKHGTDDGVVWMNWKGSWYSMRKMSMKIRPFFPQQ
T2 sequence (P02679 27-437 isoform P02679-2): T1 sequence (P02679 27-437 isoform P02679-2)
Experimental: Fibrin monomer was prepared according to the method of Belitser et al, Biochem. Biophys. Acta 154, 367-375 (1968) using either thrombin or batroxobin (an enzyme from the venom of Bothrops atrox). The polymerization of fibrin monomer which was formed by batroxobin (lacking fibrinopeptide A) or by thrombin (lacking fibrinopeptides A and B) was inhibited by D1 Peptide. Polymerization was measured spectrophotometrically at 350 nm as has been described in Budzynski, Biochem. Biophys. Acta 584, 284-287 (1979). […] At zero time the recorder was started and 0.01 ml of fibrin monomer (1.5 mg/ml in 0.02M acetic acid) was added, the cells were inverted, and the increase in absorbance at 350 nm was measured continuously for 15 min or until plateau levels were reached. For batroxobin fibrin monomer 0.15 ml of buffer or buffer containing D1 Peptide was mixed with 0.05 ml of batroxobin fibrin monomer (1.5 mg/ml in 0.02M acetic acid). The initial rate of polymerization was calculated from the slope of the steepest part of the curve and expressed as the increase in absorbance per min (A350 ·min^-1).
In order to assess the effect of D1 Peptide on fibrin monomer polymerization over a wide range of concentrations, batroxobin fibrin monomer concentration was varied from 3.3×10^-8 M to 1.75×10^-7 M and the maximum rate of polymerization measured in the absence or presence of 2.5×10^-7 M D1 Peptide (FIG. 5). […]

CC[C@H](C)[C@H](NC(=O)[C@H](CCCCN)NC(=O)[C@H](CCSC)NC(=O)[C@@H](NC(=O)[C@@H](NC(=O)[C@H](CCCCN)NC(=O)[C@H](CCCCN)NC(=O)[C@H](CCSC)NC(=O)[C@H](CO)NC(=O)[C@H](Cc1ccc(O)cc1)NC(=O)[C@H](Cc1c[nH]c2ccccc12)NC(=O)[C@H](CCCNC(=N)N)NC(=O)[C@@H](N)[C@@H](C)O)[C@@H](C)O)[C@@H](C)O)C(=O)N[C@H](C(=O)N1CCC[C@H]1C(=O)N[C@@H](Cc1ccccc1)C(=O)N[C@@H](CC(N)=O)C(=O)N[C@@H](CCCNC(=N)N)C(=O)N[C@@H](CC(C)C)C(=O)N[C@H](C(=O)N[C@H](C(=O)NCC(=O)N[C@@H](CCC(=O)O)C(=O)NCC(=O)N[C@@H](CCC(N)=O)C(=O)N[C@@H](CCC(N)=O)C(=O)N[C@@H](Cc1c[nH]cn1)C(=O)N[C@@H](Cc1c[nH]cn1)C(=O)N[C@@H](CC(C)C)C(=O)NCC(=O)NCC(=O)N[C@@H](C)C(=O)N[C@@H](CCCCN)C(=O)N[C@@H](CCC(N)=O)C(=O)N[C@@H](C)C(=O)NCC(=O)N[C@@H](CC(=O)O)C(=O)N[C@H](C(=O)O)C(C)C)[C@@H](C)CC)[C@@H](C)O)[C@@H](C)CC [D1 Peptide] (H-TRWYSMKKTTMKIIPFNRLTIGEGQQHHLGGAKQAGDV-OH)
delay of the onset of fibrin polymerization (fibrinogen): 8 min
mode of inhibition of polymerization ([1]; batroxobin fibrin monomer 3.3×10^-8 M to 1.75×10^-7 M): competitive inhibitor
concentration of fibrin monomer necessary to achieve the same rate of polymerization (apparent [FM]) ([1]; maximum rate 0.2 A350·min^-1, D1 Peptide 2.6×10^-7 M, 7.8×10^-8 M without peptide): 142 nM
